Consider 1 molecule from patent publication US7485651B2, “Compounds with activity on muscarinic receptors” (Acadia Pharmaceuticals, Inc., priority 1998, dated 2009).

Common to all, as to type: cell-based
One experiment deals with T1, serotonin 5-HT1A (Homo sapiens, UniProt P08908).
T1 sequence (P08908 1-422): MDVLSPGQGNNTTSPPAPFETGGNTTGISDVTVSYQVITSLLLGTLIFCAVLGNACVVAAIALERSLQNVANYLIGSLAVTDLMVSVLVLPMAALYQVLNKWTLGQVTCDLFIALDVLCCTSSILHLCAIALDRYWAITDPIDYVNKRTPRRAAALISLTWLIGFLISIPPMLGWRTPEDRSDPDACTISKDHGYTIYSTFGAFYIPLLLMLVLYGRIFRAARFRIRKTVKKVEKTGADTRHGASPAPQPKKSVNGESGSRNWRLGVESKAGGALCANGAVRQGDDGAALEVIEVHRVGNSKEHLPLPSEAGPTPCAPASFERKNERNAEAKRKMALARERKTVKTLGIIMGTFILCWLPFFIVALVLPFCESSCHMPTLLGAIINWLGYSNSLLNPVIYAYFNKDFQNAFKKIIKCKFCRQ
Briefly: Test against other receptors: serotonin 5-HT1A.

The target in experiment [1] is T2, α-adrenergic receptor subtype 1D (Homo sapiens, UniProt P25100).
T2 sequence (P25100 1-572): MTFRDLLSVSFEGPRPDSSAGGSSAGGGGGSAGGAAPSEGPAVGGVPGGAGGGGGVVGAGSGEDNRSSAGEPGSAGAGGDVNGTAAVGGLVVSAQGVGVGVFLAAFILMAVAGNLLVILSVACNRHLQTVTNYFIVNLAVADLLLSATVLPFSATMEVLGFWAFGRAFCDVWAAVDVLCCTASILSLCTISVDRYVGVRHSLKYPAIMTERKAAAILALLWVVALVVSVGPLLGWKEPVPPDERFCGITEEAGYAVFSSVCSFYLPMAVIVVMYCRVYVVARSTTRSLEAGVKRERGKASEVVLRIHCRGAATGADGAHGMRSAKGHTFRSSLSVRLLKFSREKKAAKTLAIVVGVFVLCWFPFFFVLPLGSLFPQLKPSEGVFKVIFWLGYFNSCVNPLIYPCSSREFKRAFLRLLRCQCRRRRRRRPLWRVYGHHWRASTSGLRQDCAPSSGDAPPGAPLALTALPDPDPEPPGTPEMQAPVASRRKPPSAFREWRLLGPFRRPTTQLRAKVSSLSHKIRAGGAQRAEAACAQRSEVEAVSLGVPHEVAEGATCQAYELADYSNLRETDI
The experiment in a line: Test against other receptors: α-adrenergic 1D.

Experiment [2] concerns the target T3, α-adrenergic receptor subtype 1A (Homo sapiens, UniProt P35348).
T3 sequence (P35348 1-466): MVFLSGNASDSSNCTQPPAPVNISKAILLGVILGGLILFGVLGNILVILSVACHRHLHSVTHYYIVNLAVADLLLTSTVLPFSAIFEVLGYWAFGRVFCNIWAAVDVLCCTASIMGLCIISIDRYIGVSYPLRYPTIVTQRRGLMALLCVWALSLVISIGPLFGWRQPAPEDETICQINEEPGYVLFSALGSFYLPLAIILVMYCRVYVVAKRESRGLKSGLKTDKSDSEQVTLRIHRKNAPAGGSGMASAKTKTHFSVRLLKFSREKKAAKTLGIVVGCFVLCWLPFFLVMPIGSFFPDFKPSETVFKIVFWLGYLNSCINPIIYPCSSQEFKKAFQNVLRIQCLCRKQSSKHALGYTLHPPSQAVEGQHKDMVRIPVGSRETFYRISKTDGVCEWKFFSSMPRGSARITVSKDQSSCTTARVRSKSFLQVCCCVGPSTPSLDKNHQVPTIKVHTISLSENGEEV
The experiment in a line: Test against other receptors: α-adrenergic 1A.

Consider `CCCCC1CCN(CCCC(=O)c2ccccc2C)CC1` [Compound A, 4-n-Butyl-1-[4-(2-methylphenyl)-4-oxo-1-butyl]piperidine], for which the agonist activity result (on serotonin 5-HT1A; in experiment [1]; in experiment [2]) was “no significant activity” in each case. The “inhibition of receptor responses (antagonist experiments)” value at serotonin 5-HT1A is reported as “did not inhibit”.
